Results: US11931346B2, “Uses of 4′-desferrithiocin analogs” (University of Florida Research Foundation, Incorporated, priority 2011, dated 2024)
Like-named read-outs stand apart in the source and are kept apart here.

Columns and labels:
[1] = tested on: acetic acid-induced colitis in rats; assay: Prevention of acetic acid-induced colitis in a rat model; assay type: in vivo, Sprague-Dawley rats; conditions: DFO 20 mg/kg 30 minutes before 4% acetic acid (FIG. 1)
Procedure: Induction of colitis. Male Sprague-Dawley rats (250-350 g) were anesthetized with sodium pentobarbital, 55 mg/kg intraperitoneally. The abdomen was shaved and prepared for surgery. A midline incision was made, and the cecum and proximal colon were exteriorized. A reversible suture was placed at the junction of the cecum and proximal colon. The colon was rinsed with saline (10 ml), and the fluid and intestinal contents were gently expressed out the rectum. A gum-based rectal plug was inserted. The compound of interest, or distilled water in the control animals (2 ml), was injected intracolonically just distal to the ligature. The cecum and proximal colon were returned to the abdominal cavity; the compound was allowed to remain in the gut for 30 min. Then, the cecum and proximal colon were exteriorized again. The rectal plug was removed, and the drug was gently expressed out of the colon. […] The entire length of the colon was removed and assessed for damage both densitometrically and biochemically.
Quantitation of acetic acid-induced colitis. Gross damage was quantitated using Photoshop-based image analysis (version 5.0, Adobe Systems, Mountain View, Calif., USA) on an Apple iMac computer. […] The cursor was then placed on the histogram, the color range determined in an earlier step was selected, and the number of pixels encompassing that range and the percent damage were quantitated automatically.

[2] = Concentration of DFT analogs in rat plasma and eyes after SC dose, rats perfused with saline; assay type: in vivo; conditions: SC 300 μmol/kg, one hour post dose; for concentration at 1 h: rat, plasma, rats perfused with saline; for Concentration in the eye: rats perfused with saline (about 100 ml, 5 minutes), entire eye
Procedure: Rats were anesthetized with ketamine/xylazine about 50 minutes after dosing. Blood of the rats was collected via cardiac puncture into vacutainer tubes containing buffered sodium citrate one hour post dose. The rats' abdomen and thorax were opened, and a portion of the sternum/ribs was removed. A 19-gauge needle was inserted into the left ventricle of the rats, and the right atrium was cut. About 100 ml of saline was perfused transcardially for five minutes. The perfusion was stopped, and the rats' eyes were removed. Any extraneous tissue was trimmed and discarded. The eyes were frozen. The entire eye was then processed and assessed for the concentration of the DFT analog. The whole blood was centrifuged, and the plasma was separated and frozen until the concentration of the DFT analog was determined.

[3] = Concentration of DFT analogs in rat plasma and eyes after SC dose, rats not perfused; assay type: in vivo; conditions: non-perfused rats, SC 300 μmol/kg, one hour post dose; for Concentration in the eye: entire eye; for concentration at 1 h: rat, plasma
Procedure: Rats were anesthetized with ketamine/xylazine about 50 minutes after dosing. Blood of the rats was collected via cardiac puncture into vacutainer tubes containing buffered sodium citrate one hour post dose. The rats' eyes were removed. Any extraneous tissue was trimmed and discarded. The eyes were frozen. The entire eye was then processed and assessed for the concentration of the DFT analog. The whole blood was centrifuged, and the plasma was separated and frozen until the concentration of the DFT analog was determined.

[4] = Concentration of DFT analogs in rat plasma and cerebrospinal fluid after PO or SC dose; assay type: in vivo, Sprague-Dawley rats; conditions: rats, PO 300 μmol/kg, monosodium salt
Procedure: Adult male Sprague-Dawley rats (450-500 g) were used. The rats were not fasted. A sample solution of a monosodium salt of (S)-4′-(HO)-DADFT-norPE (III-A) or (S)-4′-(HO)-DADFT-PE (IV-A) was administered to the rats at an oral or subcutaneous dose of 300 μmol/kg. Concentrations of the DFT analogs in the plasma and cerebrospinal fluid of the rats were measured at 0.5 hour, 1 hour, 2 hours, 4 hours, and 8 hours post administration.

[5] = Apparent partition coefficient (LogPapp) of DFT analogs; assay type: physicochemical
[6] = male, Sprague-Dawley, rat, cerebrospinal fluid, read-out: Concentration in cerebrospinal fluid
[7] = male, Sprague-Dawley, rat, plasma, read-out: Concentration in plasma
[8] = male, Sprague-Dawley, rat, plasma, 1 h, read-out: Concentration in plasma
[9] = male, Sprague-Dawley, rat, plasma, 2 h
[10] = male, Sprague-Dawley, rat, plasma, 4 h, read-out: Concentration in plasma

SMILES	Prevention of acetic acid-induced colitis [1]	concentration at 1 h [2]	Concentration in the eye [2]	Concentration in the eye [3]	concentration at 1 h [3]	concentration at 0.5 h [4, 6]	concentration at 1 h ([4]; male, Sprague-Dawley, rat, cerebrospinal fluid, 1 h, read-out: Concentration in cerebrospinal fluid)	concentration at 4 h ([4]; male, Sprague-Dawley, rat, cerebrospinal fluid, 4 h, read-out: Concentration in cerebrospinal fluid)	concentration at 8 h ([4]; male, Sprague-Dawley, rat, cerebrospinal fluid, 8 h)	concentration at 0.5 h [4, 7]	concentration at 1 h [4, 8]	concentration at 2 h [4, 9]	concentration at 4 h [4, 10]	Concentration in cerebrospinal fluid ([4]; 2 h)	Concentration in plasma ([4]; 8 h)	LogPapp [5]	Concentration in cerebrospinal fluid ([4]; 1 h)	Concentration in cerebrospinal fluid ([4]; 4 h)	Concentration in cerebrospinal fluid ([4]; 8 h)
CC(=O)N(O)CCCCCNC(=O)CCC(=O)N(O)CCCCCNC(=O)CCC(=O)N(O)CCCCCN [DFO, desferrioxamine]	prevent acetic acid-induced colitis in rats	–	–	–	–	–	–	–	–	–	–	–	–	–	–	–	–	–	–
COCCOCCOc1ccc(C2=N[C@@](C)(C(=O)O)CS2)c(O)c1 [III-A, (S)-4′-(HO)-DADFT-norPE]	–	218 ± 51 µM	17.2 ± 5.5 nmol/g wet weight of the eye	25.8 ± 6.0 nmol/g wet weight of the eye	218 ± 16 µM	8.07 ± 3.09 µM	5.7 ± 2.74 µM	0 µM	0 nM	424 ± 60 µM	219 ± 19 µM	30 ± 5 µM	2 ± 0.4 µM	2.32 (only 1 out 3 animals μM	trace	−0.89	–	–	–
COCCOCCOCCOc1ccc(C2=N[C@@](C)(C(=O)O)CS2)c(O)c1 [IV-A, (S)-4′-(HO)-DADFT-PE]	–	–	–	–	–	2.14 ± 1.01 µM	–	–	–	142 ± 57 µM	64 ± 7 µM	32 ± 20 µM	2 ± 0.5 µM	trace	trace	−1.10	trace	trace	trace
COc1ccc(C2=N[C@@H](C(=O)O)CS2)c(O)c1 [V-A]	–	663 ± 42 µM	29.7 ± 4.3 nmol/g wet weight of the eye	37.8 ± 4.3 nmol/g wet weight of the eye	701 ± 32 µM	–	–	–	–	–	–	–	–	–	–	−0.89	–	–	–
